The results in this text go back to PubChem BioAssay (NCI).

“And” between values parts separate entries of the source, which are not always exact repeats. Equal entries are not always repeated.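 48-hour exposure; five concentrations; linearly interpolated endpoints. The concentration for 50% growth inhibition is given as GI50. The concentration for full growth arrest is given as TGI.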

What all share (assay): growth of human tumour cells (NCI), 48 h
In experiment [1] the test system is A549 NSCLC.
Experiment [2] relates to ACHN renal.
The test system of experiment [3] is CCRF-CEM leukemia.
Experiment [4] deals with HCT-15 colon.
For experiment [5], the system named is MCF7 breast.
Experiment [6] relates to NCI-H226 lung.
The test system of experiment [7] is NCI-H522 lung.
Experiment [8] relates to OVCAR-3 ovarian.
The subject of experiment [9] is SF-539 CNS.
For experiment [10], the system named is SNB-75 CNS.

Turning to `Cc1cnc(NC(=O)Nc2cc(Br)c(C)cc2OC[C@@H]2CNCCO2)cn1`, the GI50 is 1.71 µM and 1.93 µM in experiment [1]; 0.319 µM and 0.225 µM in [2]; 0.321 µM and 0.259 µM in experiment [3]; 1.65 µM and 2.38 µM in experiment [4]; 0.431 µM and 0.418 µM in experiment [5]; 5.84 µM in experiment [6]. For the same molecule, the GI50 is 2.1 µM and 2.46 µM in experiment [7]; 1.37 µM and 1.13 µM in [8]; 0.457 µM and 0.281 µM in experiment [9]; 4.61 µM and 2.95 µM in [10]. Also, the TGI in experiment [1] was > 10 µM and 15.8 µM; in experiment [3], 9.48 µM and 1.23 µM; in [4] it was > 10 µM and 12.8 µM; in experiment [5], > 10 µM and 6.15 µM; in experiment [6], > 10 µM and 20.8 µM; in experiment [7], > 10 µM and 11.5 µM. The TGI in experiment [8] is > 10 µM and 10.2 µM; in experiment [9], 3.87 µM and 0.805 µM; in experiment [10], > 10 µM and 15.8 µM.
On to `CC(=O)O[C@H]1CC[C@@]2(C)C(=CC[C@H]3[C@@H]4CC[C@H](c5cc(C(F)(F)F)n(C(C)=O)n5)[C@@]4(C)CC[C@@H]32)C1`, for which the TGI in [1] was determined as 20.5 µM; in [2], 20.2 µM; in experiment [3], 9.04 µM; in experiment [4], 21.8 µM; in experiment [5], 18.7 µM; in experiment [6], 20.8 µM. Further, the TGI in [7] is more than 38.5 µM; in experiment [8], 18.7 µM; in experiment [9] it was 21.9 µM; in experiment [10], 20.8 µM.
For the molecule `CCc1cccc(C)c1NC(=O)c1sc2nc3c(cc2c1N)CCCCC3`, the GI50 in experiment [1] was 4.14 µM; in experiment [2], 7.45 µM; in [3] it was 2.68 µM; in experiment [4], 3.17 µM; in experiment [5] it was 1.86 µM; in experiment [6] it was 14.5 µM. Also, the GI50 in [7] is 2.78 µM; in experiment [8] it was 2.56 µM; in [9] it was 2.29 µM; in [10] it was 1.79 µM. In addition, the TGI in experiment [1], in experiment [2], in experiment [3], in [4], in experiment [5] and in experiment [6] was more than 100 µM throughout. The TGI in experiment [7] was 41.9 µM; in experiment [8], 9.02 µM; in [9], 8.21 µM; in [10], 51.5 µM.
Consider `S=C(Nc1ccc(Br)cc1)Nc1ccc(Br)cc1`, for which the GI50 is 5.8 µM in experiment [1]; 4.25 µM in experiment [2]; 6.19 µM in [3]; 3.35 µM in experiment [4]; 3.87 µM in [5]; more than 100 µM in [6]. For the same molecule, the GI50 is 2.92 µM in experiment [7], 3.58 µM in [8], more than 100 µM in experiment [9] and 98.7 µM in experiment [10]. The TGI in experiment [1], in [2], in experiment [3], in [4], in experiment [5] and in experiment [6] was more than 100 µM throughout. Moreover, the TGI in experiment [7] is 98.6 µM; in [8], more than 100 µM; in experiment [9], more than 100 µM; in experiment [10] it was more than 100 µM.
Turning to `COC(=O)CCc1c[nH]c2ccc(N(CCCl)CCCl)cc12`, the GI50 in experiment [1] is 1.51 µM; in experiment [2], 0.383 µM; in [3], 0.6 µM; in experiment [4] it was 3.16 µM; in experiment [5], 0.572 µM; in experiment [6] it was 1.53 µM. Besides, the GI50 was 1.79 µM in [7], 8.05 µM in [8], 0.486 µM in experiment [9] and 1.04 µM in experiment [10]. In addition, the TGI in [1] was more than 100 µM; in experiment [3], more than 28.6 µM; in experiment [4] it was more than 59.3 µM; in [5] it was 22.9 µM; in experiment [6], 41 µM; in experiment [7], 6.02 µM. Besides, the TGI was found to be 49.6 µM in [8], 4.69 µM in [9] and 11.6 µM in [10].
For `CN(C)CCCNC(=O)c1cc(NC(=O)c2cc(NC(=O)CCc3c[nH]c4ccccc34)cn2C)cn1C`, the GI50 in [1], in [2], in experiment [3], in experiment [4], in [5] and in [6] was more than 100 µM in each case. Moreover, the GI50 in experiment [7], in experiment [8], in experiment [9] and in experiment [10] was more than 100 µM throughout. The TGI in experiment [1], in experiment [2], in experiment [3], in experiment [4], in experiment [5] and in [6] was more than 100 µM in each case. Besides, the TGI in experiment [7], in experiment [8], in experiment [9] and in experiment [10] was more than 100 µM in each case.
With `CC(C)(C)C(=O)c1c(C(F)(F)F)n([O-])c2ccccc2[n+]1=O`, the GI50 in [1] is 0.485 µM; in experiment [2], 0.272 µM; in experiment [3], 0.577 µM; in experiment [4], 0.365 µM; in experiment [5] it was 0.421 µM; in experiment [6], 0.84 µM. The GI50 in experiment [7] is 0.407 µM; in experiment [8], 0.174 µM; in experiment [9], 0.846 µM; in experiment [10] it was 0.46 µM. Also, the TGI in experiment [1] was 1.26 µM; in experiment [2] it was 0.743 µM; in [3], 2.34 µM; in experiment [4], 0.914 µM; in experiment [5], 2.03 µM; in experiment [6], 2.48 µM. In addition, the TGI in [7] was 0.924 µM; in [8], 0.698 µM; in [9] it was 2.37 µM; in experiment [10], 2.05 µM.
Turning to `OCc1ccc(-c2ccc(-c3ccc(CO)o3)[se]2)o1`, the GI50 in experiment [1] is more than 59.8 µM; in experiment [2] it was more than 100 µM; in [3] it was 35.5 µM; in experiment [4], more than 100 µM; in experiment [5], 5.53 µM; in experiment [6], 0.3 µM. Besides, the GI50 in [7] is 53.4 µM; in [8], 31.3 µM; in experiment [9], more than 100 µM; in [10], 37 µM. Besides, the TGI in experiment [1] was more than 100 µM; in [2] it was more than 100 µM; in [3] it was more than 100 µM; in experiment [4], more than 100 µM; in experiment [5] it was more than 100 µM; in [6] it was 1.55 µM. The TGI in [7], in experiment [8], in [9] and in experiment [10] was more than 100 µM in each case.
Consider `Cc1ccc(C)c2c1C(O)(C#Cc1ccccc1)c1ccccc1C2(O)C#Cc1ccccc1` (stereo not drawn), for which the GI50 in experiment [1] was 3.12 µM; in [2], 2.84 µM; in experiment [3] it was 2.36 µM; in experiment [4] it was 1.03 µM; in experiment [5], 2.47 µM; in [6], 1.9 µM. Further, the GI50 is 4.55 µM in experiment [7], 3.12 µM in [8], 3.42 µM in [9] and 4.04 µM in [10]. Besides, the TGI in experiment [1] is more than 100 µM; in experiment [2], more than 100 µM; in experiment [3], more than 25.4 µM; in [4], more than 100 µM; in [5], more than 100 µM; in experiment [6], 9.46 µM. The TGI in experiment [7] was more than 100 µM; in experiment [8], more than 34.7 µM; in experiment [9], more than 79.3 µM; in experiment [10], more than 100 µM.
Turning to `Nc1ccc(C2=NN(c3ccccc3)C(c3ccc(Cl)cc3)C2)cc1` (stereo not drawn), the GI50 in experiment [1] is 2.45 µM; in [2] it was 1.8 µM; in [3] it was 2.3 µM; in experiment [4], 2.62 µM; in experiment [5], 1.32 µM; in experiment [6] it was 2.13 µM. The GI50 was 1.51 µM in experiment [7], 2.59 µM in [8], 1.93 µM in [9] and 3.76 µM in [10]. Besides, the TGI in experiment [1] came to 7.98 µM; in experiment [2], 3.57 µM; in experiment [3] it was 6.17 µM; in [4] it was 7.9 µM; in experiment [5] it was 3.82 µM; in experiment [6], 6.38 µM. Also, the TGI in experiment [7] is 3.27 µM; in experiment [8], 6.88 µM; in experiment [9], 4.21 µM; in [10], 16.2 µM.
For `COc1ccc(-c2cn[nH]c2-c2cc(OC)c3c(c2)OCO3)cc1`, the GI50 in [1] is 0.3 µM; in experiment [2] it was 0.78 µM; in experiment [3], 0.266 µM; in [4], 0.0794 µM; in experiment [5], 0.116 µM; in experiment [6], 1.34 µM. The GI50 in [7] is 0.0555 µM; in [8], 0.196 µM; in experiment [9], 0.193 µM; in [10], 0.134 µM. Further, the TGI in experiment [1] stood at 20.1 µM; in experiment [2], 48.8 µM; in [3], 21.3 µM; in [4], 14.4 µM; in experiment [5], 15.8 µM; in [6] it was 22.3 µM. Also, the TGI is 1.68 µM in experiment [7], 0.596 µM in experiment [8], 0.539 µM in [9] and 0.707 µM in experiment [10].
